Assay results taken from patent US5225436A, “Aryl substituted naphthalene derivatives” (Schering Corporation, priority 1991, dated 1993).
Read-outs that look alike come from different tables or passages of the source.

Assays:
[1] = test system: anaphylactic bronchospasm (antigen-induced SRS-A mediated bronchoconstriction); assay: Inhibition of anaphylactic bronchospasm in sensitized guinea pigs; type: in vivo, guinea pig; conditions: Cavia porcellus, iv, 0.25 h; for inhibition in vivo at 10 mg/kg: read-out: % Inhibition of anaphylactic bronchospasm; for inhibition in vivo at 3 mg/kg: Dose 3 mpk
Experimental: The anti-allergy method of this invention is identified by tests which measure a compound's inhibition of anaphylactic bronchospams-in sensitized guinea pigs having antigen-induced SRS-A mediated bronchoconstriction. Allergic bronchospams was measured in actively sensitized guinea pigs by a modification of the procedure of Konzett and Rossler, Arch. Exptl. Pathol. Pharmakol., 194, pp. 71-74 (1940). Male Hartley guinea pigs were sensitized with 5 mg ovalbumin injected ip and 5 mg injected sc in 1 ml saline on day 1 and 5 mg ovalbumin injected ip on day 4. The sensitized animals were used 3-4 weeks later. To measure anaphylactic bronchospasm, sensitized guinea pigs were fasted overnight and the following morning were anesthetized with 0.9 ml/kp ip dialurethane. The trachea and jugular vein were cannulated and the animals were ventilated by a Harvard rodent respirator. A side arm to the tracheal cannula was connected to a Harvard pressure transducer to obtain a continuous measure of intratracheal pressure. An increase in intratracheal pressure was taken as a measure of bronchoconstriction. Each guinea pig was injected iv with 1 mg/kg propranolol, 5 mg/kg indomethacin and 2 mg/kg mepyramine given together in a volume of […]. Fifteen minutes later, the animals were challenged with antigen (0.5 percent ovalbumin) delivered as an aerosol generated from a DeVilbiss Model 65 ultrasonic nebulizer and delivered through the tracheal cannula for 30 seconds. Bronchoconstriction was measured as the peak increase in intratracheal pressure occurring within 15 minutes after antigen challenge.

5-lipoxygenase = target: T1, 5-lipoxygenase (Homo sapiens, UniProt P09917); assay: 5-Lipoxygenase assay with human neutrophils; type: cell-based; conditions: 5 min, Human PMN, dose 15 μm (μM)
T1 construct: Human polymorphonuclear leukocytes (neutrophils) were obtained from normal healthy volunteers; endogenous in cells; host or cells: human blood neutrophils from healthy volunteers
T1 sequence (P09917 1-674): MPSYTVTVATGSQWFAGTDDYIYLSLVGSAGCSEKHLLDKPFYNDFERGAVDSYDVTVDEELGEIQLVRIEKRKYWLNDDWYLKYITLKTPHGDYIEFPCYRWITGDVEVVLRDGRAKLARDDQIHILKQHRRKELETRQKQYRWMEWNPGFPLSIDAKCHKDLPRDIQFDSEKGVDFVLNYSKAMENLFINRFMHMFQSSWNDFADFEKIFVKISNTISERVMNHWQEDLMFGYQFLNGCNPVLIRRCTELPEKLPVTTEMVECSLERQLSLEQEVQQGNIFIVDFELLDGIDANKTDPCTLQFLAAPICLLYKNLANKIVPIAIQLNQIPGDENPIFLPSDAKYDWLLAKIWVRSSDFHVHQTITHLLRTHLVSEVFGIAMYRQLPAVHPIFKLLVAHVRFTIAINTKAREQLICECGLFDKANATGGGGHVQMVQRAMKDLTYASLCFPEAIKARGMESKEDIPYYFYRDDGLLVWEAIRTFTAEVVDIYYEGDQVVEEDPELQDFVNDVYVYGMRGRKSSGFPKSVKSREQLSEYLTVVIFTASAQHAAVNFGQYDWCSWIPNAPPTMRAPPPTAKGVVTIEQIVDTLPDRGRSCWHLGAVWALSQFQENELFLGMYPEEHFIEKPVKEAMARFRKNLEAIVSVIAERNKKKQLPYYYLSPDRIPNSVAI
Experimental: Human polymorphonuclear leukocytes (neutrophils) were obtained from normal healthy volunteers by venipuncture and collected with heparin anticoagulant. Neutrophils were isolated by Dextran/Ficol sedimentation as described (Billah et al., J. Biol. Chem. 260, 6899-6906 (1985)). In brief, 30 ml of blood was mixed with 5 ml of dextran (Sigma) solution and kept at 37° C. for 30 min. The upper white cell-rich layer was removed and 10 ml was layered on 9 ml of Ficol-Paque solution (Pharmacia) and centrifuged at 280 xg for 10 min. at 5° C. The supernatant was removed and the neutrophil pellet was resuspended in HEPES buffer containing 25 mM N-2-hydroxyethylpiperazine-N^1 -2-ethanesulfonic acid HEPES, 125 mM NaCl, 2.5 mM KCl, 0.7 mM MgCl2, […] 10 mM glucose at pH 7.4. The red cells in the suspension were lysed by hypotonic shock. The neutrophils were washed by centrifugation in HEPES buffer two times and finally resuspended at a concentration of 20×10^6 cells/ml in the presence of 1 mM CaCl2.
Neutrophils (0.2 ml of suspension) were preincubated with dimethylsulfoxide (DMSO) vehicle with or without test compound (1 ul) for 4 minutes then incubated for 5 minutes with [^14 C] arachidonic acid (Amersham, 59 Ci/mole) at a 9 uM final concentration, and the calcium ionophore A23187 (Calbiochem) at a 1 uM final concentration. These stimulants were added in 10 ul of water:ethanol (9:1). The reaction was stopped by addition of methanol (0.4 ml), and cellular debris was removed by centrifugation. Aliquots (100 ul) of the incubations were run on a Waters two pump HPLC system fitted with a DuPont Zorbax ODS, 5u, […] Reliance Cartridge column and C18 "Guard Pak". The column was initially eluted at 2 ml/min with 80% of the mixture water:methanol:acetic acid (46:54:0.08) containing 1 mM EDTA adjusted to pH 6.0 with ammonium hydroxide (Pump A) and 20% methanol (Pump B). At 10 minutes, a linear gradient to reach 100% methanol (Pump B) at 27 minutes was established. Between 27 and 28 minutes, methanol was exchanged for the initial eluting solvent and by 35 minutes the column had been reequilibrated for the next sample. The effluent was analyzed by a continuous flow radioactivity monitor (model ROMONA-D) interfaced with a Hewlett Packard Lab Automation System for quantitation of radioactive products. These were predominantly leukotriene B4 (LTB4) which eluted at 7 minutes, and 5-hydroxyeicosatetraenoic acid (5-HETE) which eluted at 20 minutes.

[2] = test system: SRS-A / leukotriene release from antigen-challenged, sensitized guinea pig lung; assay: Inhibition of SRS-A (leukotriene) release from antigen-challenged, sensitized guinea pig lung; type: cell-based; design: inhibition: dose or concentration left out as unconfirmed; conditions: Cavia porcellus; for inhibition: Dose 30 μm (μM)
Description: The anti-allergy method of this invention is identified by tests which measure a compound's inhibition of leukotriene release in sensitized guinea pigs. Sensitized guinea pigs are killed by a blow to the head and the lungs removed and cleaned of visible connective tissue, trachea and large blood vessels. The lungs from individual animals are sliced into fragments approximately 1 mm in thickness using a McIlwain tissue chopper and then washed with oxygenated Tyrode's buffer. Weighed aliquots (approximately 400 mg wet weight) of lung are transferred into vials containing 2 ml of fresh Tyrode's solution (containing 10 mM cysteine) and incubated in the presence or absence of test compound for 12 min at 37° C. The tissues are then challenged with 20 μg ovalbumin/ml (final concentration) and incubated for 15 min. To measure leukotriene release, an aliquot of supernatant fluid is extracted with 4 volumes of 100% ethanol. After removal of the precipitated protein, the clear fluid is dried under a stream of N2 gas. The leukotriene content is measured by a radioimmunoassay using [^3 H]LTC4 and antiserum obtained from New England Nuclear. The cross-reactivity of the antiserum for LTD4 is 55%. Percent inhibition of lekotriene release is calculated by comparing for each lung the release in the presence of the test compound to that in the absence of test compound. Representative compounds of the invention at a relative dose of 50 μM of tissue are found to inhibit leukotriene release in the test procedure as indicated below in Table 1: […]

Molecule `COc1cc(OC)c2c(c1)C(C)(C)C(c1ccc(OC)c(OC)c1)CC2=NNC(N)=O` (stereo not drawn) has an inhibition in vivo at 10 mg/kg ([1]; Dose 10 mpk) of 20%, an inhibition at 15 µM (5-lipoxygenase; read-out: % Inhibition 5-HETE) of 2% and an inhibition at 15 µM (5-lipoxygenase; read-out: % Inhibition LTB) of 0%. It also gave an inhibition at 10 µM [2] of 1%.
`COc1cc(OC)c2c(c1)C(C)(C)C(c1ccc(OC)c(OC)c1)=CC2=NO` showed an inhibition in vivo at 10 mg/kg ([1]; Dose 10 mpk) of 0%, an inhibition at 15 µM (5-lipoxygenase; read-out: % Inhibition 5-HETE) of 0% and an inhibition at 15 µM (5-lipoxygenase; read-out: % Inhibition LTB) of 9%. It also gave an inhibition [2] of 0%.
For `COc1cc(OC)c2c(c1)C(C)(C)C(c1ccc(OC)c(OC)c1)=C(C)C2=O`, the inhibition in vivo at 10 mg/kg ([1]; Dose 10 mpk) was 24%, the inhibition at 15 µM (5-lipoxygenase; read-out: % Inhibition 5-HETE) was 1% and the inhibition at 15 µM (5-lipoxygenase; read-out: % Inhibition LTB) was 0%. It also gave an inhibition at 10 µM [2] of 20%.
In the case of `CCOc1cc(OC)cc2c1C(=NO)CC(c1ccc(OC)c(OC)c1)C2(C)C` (stereo not drawn), the inhibition in vivo at 3 mg/kg [1] is reported as 25%.
`COc1cc(O)c2c(c1)C(C)(C)C(c1ccc(OC)c(OC)c1)CC2=NO` (stereo not drawn) showed an inhibition in vivo at 10 mg/kg ([1]; Dose 10 mpk) of 0% and an inhibition at 15 µM (5-lipoxygenase; read-out: % Inhibition 5-HETE) of 42%.
`COc1cc(OC)c2c(c1)C(C)(C)C(c1ccc(OC)c(OC)c1)CC2=NOC(=O)C(C)(C)C` (stereo not drawn) showed an inhibition in vivo at 10 mg/kg ([1]; Dose 10 mpk) of 20%.
Molecule `CN(C)C(=O)Oc1cc(OC(=O)N(C)C)c2c(c1)C(C)(C)C(c1ccc(OC(=O)N(C)C)c(OC(=O)N(C)C)c1)=CC2=O` has an inhibition in vivo at 10 mg/kg [1] of 10%.
In the case of `COc1cc(OC)c2c(c1)C(C)(C)C(c1ccc(OC)c(OC)c1)CC(=NO)C2` (stereo not drawn) [drawing 89 [X=CH2; R3/R4=NOH; P=OCH3]], the inhibition in vivo at 3 mg/kg [1] is reported as 0%, the inhibition at 15 µM (5-lipoxygenase; read-out: % Inhibition 5-HETE) is reported as 87% and the inhibition [2] is reported as 46%.
Molecule `COc1cc(OC)c2c(c1)C(C)(C)C(c1ccc(OC)c(OC)c1)CC(=O)C2` (stereo not drawn) [drawing 89 [X=CH2; R3/R4=O; P=OCH3]] has an inhibition in vivo at 10 mg/kg ([1]; Dose 10 mpk) of 0%, an inhibition at 15 µM (5-lipoxygenase; read-out: % Inhibition 5-HETE) of 87% and an inhibition at 15 µM (5-lipoxygenase; read-out: % Inhibition LTB) of 97%. The inhibition [2] was 47%.
With `COc1ccc2c(c1)C(C)(C)C(c1ccc(OC)c(OC)c1)CCN2` (stereo not drawn) [drawing 89 [X=NH; R3/R4=H,H; P=H]] the inhibition in vivo at 10 mg/kg ([1]; Dose 10 mpk) was 42%, the inhibition at 15 µM (5-lipoxygenase; read-out: % Inhibition 5-HETE) was 73% and the inhibition [2] was 57%.
`COc1cc(OC)c2c(c1)C(C)(C)C(c1ccc(OC)c(OC)c1)CCN2` (stereo not drawn) [drawing 89 [X=NH; R3/R4=H,H; P=OCH3]] gave an inhibition in vivo at 10 mg/kg ([1]; Dose 10 mpk) of 34%, an inhibition at 15 µM (5-lipoxygenase; read-out: % Inhibition 5-HETE) of 39% and an inhibition at 15 µM (5-lipoxygenase; read-out: % Inhibition LTB) of 63%. It also gave an inhibition [2] of 45%.
`COc1cc(OC)c2c(c1)C(C)(C)C(c1ccc(OC)c(OC)c1)CC(=O)N2` (stereo not drawn) [drawing 89 [X=NH; R3/R4=O; P=OCH3]] showed an inhibition in vivo at 3 mg/kg [1] of 20%, an inhibition at 15 µM (5-lipoxygenase; read-out: % Inhibition 5-HETE) of 0% and an inhibition at 15 µM (5-lipoxygenase; read-out: % Inhibition LTB) of 2%. For the same molecule, the inhibition [2] was 65%.
With `COc1cc(OC)c2c(c1)C(C)(C)C(c1ccc(OC)c(OC)c1)CC(=O)O2` (stereo not drawn) [drawing 89 [X=O; R3/R4=O; P=OCH3]] the inhibition in vivo at 10 mg/kg ([1]; Dose 10 mpk) was 4%, the inhibition at 15 µM (5-lipoxygenase; read-out: % Inhibition 5-HETE) was 9% and the inhibition [2] was 59%.
In the case of `COc1cc(OC)c2c(c1)C(C)(C)C(c1ccc(OC)c(OC)c1)CCC2=NO` (stereo not drawn) [drawing 90 [X=NOH; W=H; J=H]], the inhibition in vivo at 10 mg/kg ([1]; Dose 10 mpk) is reported as 10%, the inhibition at 15 µM (5-lipoxygenase; read-out: % Inhibition 5-HETE) is reported as 2% and the inhibition [2] is reported as 58%.
For `COc1cc(OC)c2c(c1)C(C)(C)C(c1ccc(OC)c(OC)c1)CC(C)C2=O` (stereo not drawn) [drawing 90 [X=O; W=H; J=CH3]], the inhibition in vivo at 10 mg/kg ([1]; Dose 10 mpk) was 53%, the inhibition at 15 µM (5-lipoxygenase; read-out: % Inhibition 5-HETE) was 28% and the inhibition [2] was 61%.
Molecule `COc1cc(OC)c2c(c1)C(C)(C)C(c1ccc(OC)c(OC)c1)CCC2=O` (stereo not drawn) [drawing 90 [X=O; W=H; J=H]] has an inhibition in vivo at 10 mg/kg ([1]; Dose 10 mpk) of 56%, an inhibition at 15 µM (5-lipoxygenase; read-out: % Inhibition 5-HETE) of 51% and an inhibition at 15 µM (5-lipoxygenase; read-out: % Inhibition LTB) of 45%. The inhibition [2] was 78%.
